The values that follow come from US7902179B2, “Heterocyclic compounds” (Ajinomoto Co., Inc., priority 2001, dated 2011).

In general, IC50 refers to the concentration at which inhibition is half-maximal.

The experiment concerns TNF-α production from mouse peritoneal macrophage. Description: Inhibition of TNF-α production from mouse peritoneal macrophage (LPS stimulation, ELISA). It is filed as cell-based. The following applies: ICR mouse peritoneal cells, GM-CSF and IFN-γ 10 ng/ml, LPS 5 ng/ml, cultured 16 hrs, 50% suppression of TNF-α amount, read-out: IC50 (μM) Mo-TNF. Here is the method:
Test for TNF-α Production or Inhibition of TNF-α Production from Mouse Peritoneal Macrophage Peritoneal cells were recovered from the peritoneal cavity of ICR mice (male, 5-7 weeks of age, Charles River) and sown in a 96-well half plate (Costar 3696) at a density of 1×10^5 cells per well. As the medium, RPMI-1640 containing 10% fetal calf serum was used and, using this medium, each reagent was prepared. Mouse GM-CSF (Peprotech) and mouse IFN-γ (Peprotech) were respectively added at a final concentration of 10 ng/ml, lipopolysaccharide (E. coli 0111: B4 LPS, DIFCO, lot 99078) was added at a final concentration of 5 ng/ml, and the compound of the present invention was added at 8 steps of dilution series by 3-fold dilution from the final concentration (300 μM), and cultured for 16 hrs. The concentration of TNF-α secreted into the culture supernatant was determined using a mouse TNF-α ELISA quantitative determination kit (Pharmingen, #2673KI) and the absorbance at 450 nm was measured using a V-max kinetic microplate reader (Molecular Devices). The concentration of the compound necessary for 50% suppression of TNF-α amount produced by lipopolysaccharide stimulation was taken as IC50 (μM).

Turning to `Cc1ccc(-n2nc3c(c2N)C(=O)NC(=O)C3)cc1` [Example 5], the IC50 worked out at 23.9 µM.

On to `Nc1c2c(nn1-c1cccc(F)c1)CC(=O)NC2=O` [Example 9], for which the IC50 worked out at 18 µM. Then `Nc1c2c(nn1-c1ccc([N+](=O)[O-])cc1)CC(=O)NC2=O` [Example 10], with 22.9 µM. As for `Nc1c2c(nn1-c1cccc(Cl)c1)CC(=O)NC2=O` [Example 11], the figure is 15.2 µM; as for `Nc1c2c(nn1-c1ccc(Cl)cc1)CC(=O)NC2=O` [Example 12], 11.8 µM; as for `Nc1c2c(nn1-c1ccccn1)CC(=O)NC2=O` [Example 13], 5 µM. Regarding `Cc1cccc(-n2nc3c(c2N)C(=O)NC(=O)C3)c1` [Example 14], the IC50 was 27.3 µM. On to `COc1cccc(-n2nc3c(c2N)C(=O)NC(=O)C3)c1` [Example 16], for which the IC50 was 20.1 µM. Then `Nc1c2c(nn1-c1c(Cl)cccc1Cl)CC(=O)NC2=O` [Example 19], with 32.8 µM. As for `Nc1c2c(nn1-c1ccccc1)CC(=O)NC2=O` [Example 21], the figure is 3.5 µM; as for `O=C1Cc2nn(-c3ccccc3)cc2C(=O)N1` [Example 25], 28 µM. As for `O=C1Cc2nn(-c3ccccc3)c(Br)c2C(=O)N1` [Example 26], the figure is 15.1 µM; as for `O=C1Cc2nn(-c3ccccc3)c(I)c2C(=O)N1` [Example 27], 28.3 µM. As to `O=C1Cc2nn(-c3ccccc3)c(Sc3ccccc3)c2C(=O)N1` [Example 33], the IC50 was 79.1 µM. Turning to `COC(=O)CCn1nc2c(c1N)C(=O)NC(=O)C2` [Example 36], the IC50 was 80.5 µM.

`Nc1c2c(nn1-c1ccccc1)/C(=C\c1ccc(O)cc1)C(=O)NC2=O` [Example 46]: the IC50 was 23.7 µM. Then `Cc1ccccc1/C=C1/C(=O)NC(=O)c2c1nn(-c1ccccc1)c2N` [Example 49], with 32.7 µM; and `CC(C)c1ccc(/C=C2/C(=O)NC(=O)c3c2nn(-c2ccccc2)c3N)cc1` [Example 52], with 8.6 µM; and `CC(=O)Nc1ccc(/C=C2/C(=O)NC(=O)c3c2nn(-c2ccccc2)c3N)cc1` [Example 53], with 7.9 µM.

Turning to `Nc1ccc(/C=C2/C(=O)NC(=O)c3c2nn(-c2ccccc2)c3N)cc1` [Example 55], the IC50 came to 6.1 µM. Regarding `Nc1c2c(nn1-c1ccccc1)/C(=C\c1ccc(O)c(O)c1)C(=O)NC2=O` [Example 56], the IC50 was found to be 3.3 µM. As for `Nc1c2c(nn1-c1ccccc1)/C(=C\c1cccc(O)c1)C(=O)NC2=O` [Example 57], the figure is 7.8 µM. Take `Nc1c2c(nn1-c1ccccc1)/C(=C\c1ccc(C(=O)O)cc1)C(=O)NC2=O` [Example 60]: the IC50 came to 3.7 µM.

Consider `Cn1ccnc1/C=C1/C(=O)NC(=O)c2c1nn(-c1ccccc1)c2N` [Example 64], for which the IC50 was 3.5 µM. As for `Nc1c2c(nn1-c1ccccc1)/C(=C\C1=COc3ccc(O)cc3C1)C(=O)NC2=O` [Example 66], the figure is 3.5 µM.

Take `COc1ccccc1/C=C1/C(=O)NC(=O)c2c1nn(-c1ccccc1)c2N` [Example 71]: the IC50 amounted to 4.5 µM. Then `COc1cccc(/C=C2/C(=O)NC(=O)c3c2nn(-c2ccccc2)c3N)c1` [Example 72], with 80.5 µM; and `COc1cccc(OC)c1/C=C1/C(=O)NC(=O)c2c1nn(-c1ccccc1)c2N` [Example 73], with 5.6 µM. As for `COc1cc(OC)c(/C=C2/C(=O)NC(=O)c3c2nn(-c2ccccc2)c3N)c(OC)c1` [Example 74], the figure is 4.4 µM; as for `CCC/C=C1/C(=O)NC(=O)c2c1nn(-c1ccccc1)c2N` [Example 77], 14.7 µM.

`CSCC/C=C1/C(=O)NC(=O)c2c1nn(-c1ccccc1)c2N` [Example 78]: the IC50 turned out to be 10.6 µM.

As for `Nc1c2c(nn1-c1ccccc1)/C(=C\c1cccs1)C(=O)NC2=O` [Example 82], the half-maximal inhibitory concentration (IC50) is 78.5 µM.

With `Nc1c2c(nn1-c1ccccc1)/C(=C\c1ccco1)C(=O)NC2=O` [Example 83], the IC50 was found to be 93.2 µM. Then `C/C=C1/C(=O)NC(=O)c2c1nn(-c1ccccc1)c2N` [Example 86], with 9.7 µM; and `CC/C(C)=C1/C(=O)NC(=O)c2c1nn(-c1ccccc1)c2N` [Example 88], with 9.9 µM; and `Nc1c2c(nn1-c1ccccc1)C(=C1CCOCC1)C(=O)NC2=O` [Example 92], with 31.9 µM.

As to `Nc1c2c(nn1-c1ccccc1)C1(CC1)C(=O)NC2=O` [Example 98], the IC50 came out at 18.4 µM. Take `Cn1nc2c(c1NCc1cccc(O)c1)C(=O)NC(=O)C2` [Example 112]: the IC50 worked out at 82.2 µM.

For `Nc1c2c(nn1-c1ccc(F)cc1)CC(=O)NC2=O` [Example 124], the IC50 stood at 9.4 µM.

Regarding `Nc1c2c(nn1-c1c(F)c(F)c(F)c(F)c1F)CC(=O)NC2=O` [Example 125], the half-maximal inhibitory concentration (IC50) turned out to be 10.8 µM. As for `CCOC(=O)Nc1cccc(-n2nc3c(c2N)C(=O)NC(=O)C3)c1` [Example 129], the figure is 8.4 µM; as for `Nc1c2c(nn1-c1ccccc1)/C(=C\c1c(F)c(F)c(F)c(F)c1F)C(=O)NC2=O` [Example 133], 0.3 µM. Then `CC(C)=C1C(=O)NC(=O)c2c1nn(-c1ccccc1)c2N` [Example 135], with 8.3 µM; and `CCOC(=O)/C(C)=C1\C(=O)NC(=O)c2c1nn(-c1ccccc1)c2N` [Example 136], with 4.3 µM; and `CO/N=C1/C(=O)NC(=O)c2c1nn(-c1ccccc1)c2N` [Example 143], with 26.2 µM. As for `CCOC(=O)C(C)C1C(=O)NC(=O)c2c1nn(-c1ccccc1)c2N` (centres unmarked) [Example 149], the figure is 99.7 µM; as for `Nc1c2c(nn1-c1ccccc1O)CC(=O)NC2=O` [Example 153], 9 µM; as for `CCC(CC)n1nc2c(c1N)C(=O)NC(=O)C2` [Example 158], 5.8 µM.

Consider `Nc1c2c(nn1C1CCOCC1)CC(=O)NC2=O` [Example 159], for which the 50% inhibitory concentration (IC50) is 26.9 µM. As for `Nc1c2c(nn1CC1CCCCC1)CC(=O)NC2=O` [Example 160], the IC50 was determined as 60.3 µM. `Nc1c2c(nn1C1CCCC1)CC(=O)NC2=O` [Example 161]: the IC50 was determined as 10.9 µM. As for `CCCC(CCC)n1nc2c(c1N)C(=O)NC(=O)C2` [Example 162], the figure is 13 µM; as for `CC1(C)CCC(n2nc3c(c2N)C(=O)NC(=O)C3)CC1` [Example 163], 2.6 µM; as for `CCCCCCn1nc2c(c1N)C(=O)NC(=O)C2` [Example 164], 2.1 µM. In the case of `CCC(CC)Cn1nc2c(c1N)C(=O)NC(=O)C2` [Example 167], the IC50 turned out to be 26.8 µM. Then `Nc1c2c(nn1Cc1ccccc1O)CC(=O)NC2=O` [Example 170], with 13.2 µM; and `Nc1c2c(nn1Cc1cccc3ccccc13)CC(=O)NC2=O` [Example 172], with 83.1 µM; and `Nc1c2c(nn1Cc1cccnc1)CC(=O)NC2=O` [Example 176], with 3.5 µM. Then `Nc1c2c(nn1Cc1ccccc1I)CC(=O)NC2=O` [Example 180], with 8.7 µM. As for `O=C1Cc2nn(-c3ccccc3)c(N3CCCC3)c2C(=O)N1` [Example 186], the IC50 amounted to 14.7 µM. Regarding `O=C1Cc2nn(-c3ccccc3)c(NC3CCCCC3)c2C(=O)N1` [Example 187], the 50% inhibitory concentration (IC50) was found to be 16.6 µM. Then `O=C1Cc2nn(-c3ccccc3)c(-c3ccncc3)c2C(=O)N1` [Example 190], with 77.3 µM.
